PubChem BioAssay AID2060486 (Molecular Pharmacology Branch, DTP, NCI, 2025)

Test system: IGROV1 complex spheroids (HUVEC, MSC), viability % test/control
Experiment: Anticancer human tumor IGROV1 cell line growth inhibition [GQUAD];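 further: spheroids exposed to compounds for 7 days before readout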;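 on viability, T/C: 100% = DMSO vehicle control viability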
Details: for IC50: curve of first compound; for viability, T/C: stronger effect = lower value; active means viability on the fitted dose curve at most 10% of control; inactive means the rest
Summary of the method: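 Tumor cells were grown as complex spheroids with HUVEC endothelial cells and mesenchymal stem cells as stroma. G-quadruplex stabilizers were combined with targeted agents over half-log dilutions from near the clinical Cmax, or from 10 microM.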

[1] = second compound 0.0316 µM, first compound 0.000999 µM
[2] = second compound 0.0316 µM, first compound 0.00316 µM
[3] = second compound 0.0316 µM, first compound 0.00999 µM
[4] = second compound 0.0316 µM, first compound 0.0316 µM
[5] = second compound 0.0316 µM, first compound 0.0999 µM
[6] = second compound 0.0316 µM, first compound 0.316 µM
[7] = second compound 0.1 µM, first compound 0.000999 µM
[8] = second compound 0.1 µM, first compound 0.00316 µM
[9] = second compound 0.1 µM, first compound 0.00999 µM
[10] = second compound 0.1 µM, first compound 0.0316 µM
[11] = second compound 0.1 µM, first compound 0.0999 µM
[12] = second compound 0.1 µM, first compound 0.316 µM
[13] = second compound 0.316 µM, first compound 0.000999 µM
[14] = second compound 0.316 µM, first compound 0.00316 µM
[15] = second compound 0.316 µM, first compound 0.00999 µM
[16] = second compound 0.316 µM, first compound 0.0316 µM
[17] = second compound 0.316 µM, first compound 0.0999 µM
[18] = second compound 0.316 µM, first compound 0.316 µM
[19] = second compound 1 µM, first compound 0.000999 µM
[20] = second compound 1 µM, first compound 0.00316 µM
[21] = second compound 1 µM, first compound 0.00999 µM
[22] = second compound 1 µM, first compound 0.0316 µM
[23] = second compound 1 µM, first compound 0.0999 µM
[24] = second compound 1 µM, first compound 0.316 µM
[25] = second compound 3.16 µM, first compound 0.000999 µM
[26] = second compound 3.16 µM, first compound 0.00316 µM
[27] = second compound 3.16 µM, first compound 0.00999 µM
[28] = second compound 3.16 µM, first compound 0.0316 µM
[29] = second compound 3.16 µM, first compound 0.0999 µM
[30] = second compound 3.16 µM, first compound 0.316 µM
[31] = second compound 10 µM, first compound 0.000999 µM
[32] = second compound 10 µM, first compound 0.00316 µM
[33] = second compound 10 µM, first compound 0.00999 µM
[34] = second compound 10 µM, first compound 0.0316 µM
[35] = second compound 10 µM, first compound 0.0999 µM
[36] = second compound 10 µM, first compound 0.316 µM

Cc1[nH]c2ccccc2c1CCNCc1ccc(/C=C/C(=O)NO)cc1 + CN(C)c1ccc(Nc2c3ccc(NC(=O)CCN4CCCC4)cc3nc3cc(NC(=O)CCN4CCCC4)ccc23)cc1
active: viability, T/C [5] 4.27% | viability, T/C [6] 0.32% | viability, T/C [11] 3.89% | viability, T/C [12] 0.33% | viability, T/C [17] 4.59% | viability, T/C [18] 0.38% | viability, T/C [23] 5.62% | viability, T/C [24] 0.2% | viability, T/C [29] 4.53% | viability, T/C [30] 0.37% | viability, T/C [35] 4.24% | viability, T/C [36] 0.47%
19.1 nM: IC50 (second compound 0.0316 µM)
12.4 nM: IC50 (second compound 3.16 µM)
10.2 nM: IC50 (second compound 0.1 µM)
22.7 nM: IC50 (second compound 0.316 µM)
11.7 nM: IC50 (second compound 10 µM)
inactive: viability, T/C [1] 104% | viability, T/C [2] 84.2% | viability, T/C [3] 79.3% | viability, T/C [4] 28.5% | viability, T/C [7] 84.3% | viability, T/C [8] 67.5% | viability, T/C [9] 51.4% | viability, T/C [10] 30.1% | viability, T/C [13] 77.1% | viability, T/C [14] 77.7% | viability, T/C [15] 70.1% | viability, T/C [16] 42.1% | viability, T/C [19] 65.2% | viability, T/C [20] 89% | viability, T/C [21] 54.2% | viability, T/C [22] 31.2% | viability, T/C [25] 64% | viability, T/C [26] 82.1% | viability, T/C [27] 48.8% | viability, T/C [28] 29.6% | viability, T/C [31] 53% | viability, T/C [32] 55.4% | viability, T/C [33] 56.6% | viability, T/C [34] 18.1%
14.7 nM: IC50 (second compound 1 µM)

Cn1ncnc1[C@H]1c2n[nH]c(=O)c3cc(F)cc(c23)N[C@@H]1c1ccc(F)cc1 + Cc1[nH]c2ccc(F)cc2c1-c1nc2c3cccnc3c3ncccc3c2[nH]1
149 nM: IC50 (second compound 0.0316 µM)
active: viability, T/C [19] 5.11% | viability, T/C [20] 4.97% | viability, T/C [21] 5.21% | viability, T/C [22] 4.33% | viability, T/C [23] 4.79% | viability, T/C [24] 4.17% | viability, T/C [25] 4.43% | viability, T/C [26] 4.31% | viability, T/C [27] 4.37% | viability, T/C [28] 4.14% | viability, T/C [29] 4.64% | viability, T/C [30] 3.96% | viability, T/C [31] 4.02% | viability, T/C [32] 3.63% | viability, T/C [33] 5.14% | viability, T/C [34] 4.68% | viability, T/C [35] 4.53% | viability, T/C [36] 4.33%
73.5 nM: IC50 (second compound 0.1 µM)
inactive: viability, T/C [1] 105% | viability, T/C [2] 79.6% | viability, T/C [3] 86.7% | viability, T/C [4] 62.3% | viability, T/C [5] 67.7% | viability, T/C [6] 33.4% | viability, T/C [7] 100% | viability, T/C [8] 80.1% | viability, T/C [9] 83% | viability, T/C [10] 48.9% | viability, T/C [11] 53.1% | viability, T/C [12] 32% | viability, T/C [13] 96.4% | viability, T/C [14] 81.9% | viability, T/C [15] 68.9% | viability, T/C [16] 54.8% | viability, T/C [17] 46.5% | viability, T/C [18] 27.5%
< 0.999 nM: IC50 (second compound 1 µM) | IC50 (second compound 3.16 µM) | IC50 (second compound 10 µM)
53 nM: IC50 (second compound 0.316 µM)
